Laboratory results taken from paper PMC8191290, “Substrate specificities and reaction kinetics of the yeast oligosaccharyltransferase isoforms” (The Journal of Biological Chemistry, 2021).
Like-named read-outs stand apart in the source and are kept apart here.

Target: T1, OST3 complex (Saccharomyces cerevisiae, UniProt P39007)
T1 construct: were purified separately from strains expressing only one type of complex; made in house; host or cells: Saccharomyces cerevisiae, BY4742-derived strain ost6::LEU2MX6 OST4-1D4::kanMX6 YEp352-OST3
Experiment: In vitro glycosylation assay, kinetic parameters for acceptor peptides, OST3 complex
Type: biochemical
Details: for Km: 10 mM MnCl2, pH 7.5, 30 °C, UPLC TAMRA fluorescence, read-out: KM (apparent); for Km / kcat (apparent): n = 3; for kcat (apparent): 30 °C
Protocol: Figure 2 In vitro glycosylation assay for OST activity and peptide sequence preferences.A, schematic representation of the in vitro reaction setup for yeast OST activity. The peptide substrate containing the glycosylation sequon N-X-(S/T) is labeled with the TAMRA fluorophore at the N-terminus. Incubation with OST, synthetic LLO, and a divalent metal ion (Mn^2+preferred) results in the transfer of the sugar moiety (two GlcNAcs, blue squares) from the LLO to the fluorescently labeled peptide, yielding a glycopeptide product. B, measurement and analysis of the in vitro assay shown in A. Fluorescently labeled peptide (P) substrate and glycopeptide (GP) product are separated by reverse-phase chromatography using UPLC. The glycopeptide elutes earlier than the peptide and amounts of glycopeptide are quantified at different reaction time points by peak integration. C, quantification of kinetic parameters for synthetic peptide TAMRA-DANYTK. Reactions were performed with 2.8 μg purified extract containing OST3 complex before size-exclusion chromatography (approximately 1 μM OST3 complex), 150 μM LLO C20, and varying concentrations of the peptide. Glycopeptide product was measured by UPLC and turnover rates were determined by linear regression of the initial phase of the reaction and taking into account the enzyme concentration. The mean of three reactions is shown and the data were fitted by nonlinear regression according to the Michaelis–Menten formula (R^2 = 0.9803) using Prism. Error bars indicate standard deviations from the mean (n = 3). D, screening glycosylatable peptides derived from highly glycosylated yeast sequences. Reactions were performed with 0.4 μM purified OST3 complex, 150 μM LLO C20, 25 μM TAMRA-DANYTK, and 25 μM unlabeled competitor peptide. TAMRA-DANYTK glycopeptide product formed after 30 min was measured by UPLC and % inhibition was determined relative to a control reaction containing no unlabeled competitor peptide. E, quantification of kinetic parameters for synthetic peptide TAMRA-YANATS. Reactions were performed with 0.1 μM purified OST3 complex, 100 μM LLO C20, and varying concentrations of the peptide. Turnover rates were determined as in C. The mean of three reactions is shown and the data were fitted by nonlinear regression according to the Michaelis–Menten formula (R^2 = 0.9794) using Prism. Error bars indicate standard deviations from the mean (n = 3). P, phosphate; TAMRA, tetramethylrhodamine.
TAMRA-labeled peptides with 5-TAMRA at the N-terminus and an amide group at the C-terminus were synthesized by WatsonBio Sciences. Unlabeled peptides (Table S1) were synthesized by Genscript Corp. and were designed so that the asparagine of the glycosylation sequon was in the middle (except for Peptide 8). Lyophilized peptides were dissolved in dimethyl sulfoxide (DMSO), unless specified otherwise, to a 3 mM stock solution and further diluted in ddH2O for reactions.
Reactions were performed in a total volume of 10 μl containing the specified amount of TAMRA-labeled peptide, synthetic LLO analog, 10 mM MnCl2, and purified OST after size-exclusion chromatography in purification buffer (50 mM Hepes, pH 7.5, 150 mM NaCl, 1 mM MgCl2, 1 mM MnCl2, 10% (v/v) glycerol, 0.03% (w/v) DDM, and 0.006% (w/v) CHS). The concentration of OST was calculated using the molecular weight of 280 kDa. The reaction mixture was preincubated at 30 °C for 5 min before adding the peptide to start the reaction that proceeded at 30 °C. Time points were taken such that the reaction was in the linear phase. At each time point, 1 μl reaction mixture was taken and the reaction was stopped by dilution in stop solution (0.1% FA in 10% ACN, 10 mM KPO4 pH 8.0) such that the final peptide concentration was 2 μM.
Samples were analyzed by reverse-phase chromatography using a UPLC Dionex UltiMate 3000 with an Accucore 150-C18 100 × 2.1 mm 2.6 μm column (Thermo Fisher Scientific). […]

[1] = 0.1 μM purified OST3 complex, 100 μM LLO C20, 10–500 μM peptide

Substance | kcat/KM (0.1 μM purified OST3 complex, 100 μM LLO C20) [min^-1 μM^−s1] | Km [1] [µM] | kcat (apparent) [1] [s⁻¹] | specificity relative to TAMRA-DANYTK (OST3 complex) | fold lower apparent KM (OST3 complex, relative to TAMRA-DANYTK) [fold] | kcat/KM (2.8 μg purified extract (approx. 1 μM OST3 complex), 150 μM LLO C20) [min^-1 μM^−s1] | Km (2.8 μg purified extract (approx. 1 μM OST3 complex, before SEC), 150 μM LLO C20, 10–400 μM peptide, saturation not reached, listed as TAMRA-DANYTK-NH2) [µM] | Km (2.8 μg purified extract (approx. 1 μM OST3 complex, before SEC), 150 μM LLO C20, 10–400 μM peptide, saturation not reached) [µM] | kcat (apparent) (2.8 μg purified extract (approx. 1 μM OST3 complex, before SEC), 150 μM LLO C20, 10–400 μM peptide) [s⁻¹]
TAMRA-YANATS [shorter version of Peptide 5 of only six amino acid residues (TAMRA-YANATS)] | 0.26 | 55.6 ± 6.5 | 0.242 ± 0.012 | over ten times more specific | 3.5 |  |  |  | 
TAMRA-DANYTK-NH2 [fluorescently labeled hexapeptide TAMRA-DANYTK-NH2 as the acceptor peptide, reference compound] |  |  |  |  |  | 0.02 | ~200 | 201 ± 51.3 | 0.065 ± 0.01
